The text below walks through data of patent US20190269705A1, “METHODS AND MATERIALS FOR TREATING GRAFT VERSUS HOST DISEASE” (Regents of the University of Minnesota, priority 2017, published 2019).

One assay deals with Th1 cells. Nature of the assay: Intracellular metabolites by mass spectrometry and pathway analysis, Th1. The format is cell-based, mouse. Conditions: for Hits: Th1 Pathway. Here is the method:
Differentiation: CD4 cells were isolated as previously described and differentiated in subset-specific medium (in triplicate) for 3 days, split at day 3 with new media and IL-2, then allowed to incubate a further 2 days. At day 5, wells were combined, cells washed lx in MACS buffer, re-isolated for CD4 via AutoMACS Pro automated magnetic separator (Miltenyi, Cat #: 130-092-545). Metabolites from Th1 and Th17 cells were extracted as described above.
Differentiation. CD4 cells were isolated as previously described and differentiated in subset-specific medium in the presence of vehicle or CB839 (in triplicate) for 3 days, split at day 3 with new media and IL-2, then allowed to incubate a further 2 days. At day 5, wells were combined, cells washed 1× in MACS buffer and re-isolated for CD4 via AutoMACS Pro automated magnetic separator (Miltenyi, Cat #: 130-092-545). Metabolites from Th1 and Th17 cells were extracted and analyzed by LC-HRMS using a Q-Exactive as described previously (Gerriets et al., 2015). Data were range scaled and analyzed using Metaboanalyst 3.5 (Xia and Wishart, 2002) to generate heat maps and for principle component analyses.

The next assay relates to naïve CD4+ T cells. Briefly: Extracellular Acidification Rate on instantaneous T cell activation (Seahorse). The format is cell-based, mouse. The settings on record: αCD3/CD28 injection in the presence of vehicle or CB839. Here is the method:
Experiments were carried out on Agilent Seahorse XF96 bioanalyzer (Agilent). Briefly, wild type CD4+ cells were isolated as previous and activated for 3 days on CD3/CD28 as previously described, or skewed to Th1 and Th17 subsets as described above. T cells were spun onto XF96 Cell-Tak (BD Bioscience, Cat #: 354240) coated plates and rested in Seahorse XF RPMI 1640 media supplemented with glutamine, sodium pyruvate, and glucose. For immediate metabolic response, CB839 and UK5099 were injected separately or in combination, and OCR and ECAR measured.
Experiments were carried out on Agilent Seahorse XF96 bioanalyzer (Agilent). Briefly, wild type CD4+ cells were isolated as previous and activated for 3 days on αCD3/CD28 coated plates as previously described, or skewed to Th1 and Th17 subsets as described above. T cells were isolated and spun onto XF96 Cell-Tak (BD Bioscience, Cat #: 354240) coated plates and rested in Seahorse XF RPMI 1640 media supplemented with glutamine, sodium pyruvate, and glucose. For immediate metabolic response, 1 μM CB839 and 5 μM UK5099 (Cat #: PZ0160-5MG) were injected separately or in combination, and OCR and ECAR measured. For activation response, 1 uM CB839 was injected into IL-7 maintained naïve CD4+ T cells in seahorse medium and allowed to incubate for 20 minutes, followed by soluble αCD3/CD28 injection.

The test system of another assay is CD19+ B cells. Nature of the assay: In vivo CAR T cells treated ex vivo. The arrangement: species or system mouse. The settings on record: CAR-T cells treated with CB839 during in vitro transduction. The source says:
CAR T cells were produced as described elsewhere (see, e.g., Li et al., “Gammaretroviral Production and T Cell Transduction to Genetically Retarget Primary T Cells Against Cancer.” In: Lugli E, ed. T-Cell Differentiation: Methods and Protocols. New York, N.Y.: Springer New York; 2017:111-118). Briefly, spleen T cells were isolated from Thy1.1 B6 mice at day 0. Cells were then activated with mouse CD3/CD28 Dynabeads and 30 IU/ml recombinant human IL2. At day 1 and 2, cells were spin transduced twice with retrovirus carrying CARs. At day 3, cells were fed with fresh medium. At day 4, transduced T cells were harvested, beads removed, evaluated for viability, transduction efficiency, immune phenotype and ready for use. For CB839 treated CAR T cells, CB839 were added to the culture at day 1, 2 and 3 at 1 μM. For in vivo study, C57B6 mice (n=25) were i.p. injected with cyclophosphamide (CTX) at 300 mg/kg. Mice were i.v. injected with 3×10^5 CAR T cells one day after CTX injection. Peripheral blood (PB) samples were collected 1, 2, 4 and 6 weeks after CAR T injection, stained with B cell and T cell antibodies and subjected to flow cytometry. […]
CAR T cells were produced as previously described (Li et al., 2017). […] At day 4, transduced T cells were harvested, beads removed, evaluated for viability, transduction efficiency, immune phenotype and ready for use. […]

In a further assay the test system is Eμ B ALL cells. Nature of the assay: In vitro CAR T cell co-culture with target Eμ B ALL cells. The settings on record: CAR-T cells treated with CB839 before co-culture. The assay is classed as cell-based, mouse. An excerpt:
T cells were isolated from wild type C57BL6 spleens using the Pan T Cell isolation kit (Cat #: 130-095-130) and were activated on anti-CD3 anti-CD28 coated plates with IL2 for four days with or without CB839. On days 1 and 2, T cells were transduced with retrovirus produced by Plat-E cells carrying the CAR construct targeting CD19 with GFP reporter. On day 4, CAR T cells were washed three times to remove any drug remnants and plated to equal concentrations on a 96 well plate at 5×10^5 cells per well and serial dilutions thereof. 5×10^5 Emu cells, a CD19+ B cell acute lymphoblastic leukemia cell line
(Generously provided by Dr. Davila Lab) were then added to every well to assay cell numbers. CD19+ and GFP+events were stained and counted by flow for each well after 72 hours.

Entries after “also recorded” stand apart in the source; their conditions may differ.

Consider `O=C(Cc1cccc(OC(F)(F)F)c1)Nc1ccc(CCCCc2nnc(NC(=O)Cc3ccccn3)s2)nn1` [CB839], for which, in the assay with Th1 cells (Th1, CB839-treated vs vehicle), the “2-hydroxyglutarate (2-HG)” value was “increased in both Th1 and Th17”. For the same molecule, the “intracellular α-KG” value in the assay with Th1 cells (Th1, CB839-treated vs vehicle) is “reduced”. The “programs of intracellular metabolites” value in the assay with Th1 cells (Th1, differentiated with CB839, 5 days) was “shifted”. For the same molecule, in the assay with Th1 cells (Th1, over five days), the “glutamate and aspartate levels” value is “rapidly decreased”. For the same molecule, the “steady state levels of glutamine” value in the assay on Th1 cells (Th1, over five days) is “rapidly increased”. The Hits was determined as 8 in the assay with Th1 cells (Alanine, aspartate and glutamate metabolism); 6 in the assay with Th1 cells (Arginine and proline metabolism); 3 with Th1 cells (Butanoate metabolism); 5 in the assay on Th1 cells (Citrate cycle (TCA cycle)); 3 in the assay on Th1 cells (Cysteine and methionine metabolism); 3 in the assay with Th1 cells (D-Glutamine and Dglutamate metabolism). The Hits in the assay with Th1 cells (Histidine metabolism) was 3; in the assay with Th1 cells (Nitrogen metabolism), 2; in the assay with Th1 cells (Pyrimidine metabolism), 6; with Th1 cells (Pyruvate metabolism), 3. Besides, the “early events in T cell activation (ECAR)” value with naïve CD4+ T cells is “did not to be affected”. In addition, the “CAR-T cell accumulation / persistence in vivo” value in the assay with CD19+ B cells was “accumulated in vivo to a greater extent; also recorded: enhances T cell persistence”. Besides, the “elimination of CD19+ targets in vivo” value in the assay on CD19+ B cells was “equivalently capable; also recorded: equally capable of eliminating CD19+ targets in vivo”. The “elimination of B cell leukemia cells in vitro” value in the assay with Eμ B ALL cells is “greater ability to eliminate B cell leukemia cells in vitro”.
